We go through 34 compounds from BindingDB's records for doi:10.1021/jm990281p (Parke-Davis Pharmaceutical Research, 2000).

One experiment has as its target T1, Gag-Pol polyprotein [489-587] (Human immunodeficiency virus 1, UniProt P04585).
T1 construct: 489-587
Briefly: Protease Inhibition Assay.
Conditions: not given
The method, then:
(§1) Sensitivity of HIV-1 protease activity to protease inhibitors was determined by a peptide substrate cleavage assay. Protease products were analyzed on a reverse-phase high-pressure liquid chromatograph.
Broadly, the IC50 is the concentration that gives 50% inhibition. In turn, `CCNS(=O)(=O)Oc1cc(C(C)(C)C)c(SC2C(=O)CC(CCc3ccccc3)(C(C)C)OC2=O)cc1C` (centres undefined) had an IC50 of 8.9 nM. For `Cc1cc(SC2C(=O)CC(CCc3ccc(O)cc3)(C3CCCCC3)OC2=O)c(C(C)(C)C)cc1OS(=O)(=O)Cn1ccnc1` (centres undefined), it took 8 nM to reach half-maximal inhibition (IC50).

Compound `Cc1cc(SC2C(=O)CC(C)(CCc3ccc(O)cc3)OC2=O)c(C(C)(C)C)cc1OS(=O)(=O)Cn1ccnc1` (centres undefined) had an IC50 of 2 nM. Still for that read-out and setting: next, `Cc1cc(SC2C(=O)CC(CCc3ccc(O)cc3)(C(C)C)OC2=O)c(C(C)(C)C)cc1OS(=O)(=O)Cn1ccnc1` (centres undefined): 2.4 nM; `Cc1cc(SC2C(=O)CC(CCc3ccccc3)(C(C)C)OC2=O)c(C(C)(C)C)cc1OS(=O)(=O)Cn1ccnc1` (centres undefined): 3 nM. Same read-out and setting: the same measure for `Cc1cc(SC2C(=O)CC(C)(CCc3ccc(O)cc3)OC2=O)c(C(C)(C)C)cc1NS(=O)(=O)Cn1ccnc1` (centres undefined): 1.9 nM; for `Cc1cc(SC2C(=O)CC(CCc3ccc(N)cc3)(C(C)C)OC2=O)c(C(C)(C)C)cc1OS(=O)(=O)c1cccs1` (centres undefined): 18.5 nM. Compound `CCCC1(CCc2ccc(O)cc2)CC(=O)C(Sc2cc(C)c(OS(=O)(=O)Cn3ccnc3)cc2C(C)(C)C)C(=O)O1` (centres undefined) yielded an IC50 of 2.2 nM. In the case of `Cc1cc(SC2C(=O)CC(CCc3ccc(O)cc3)(CC(C)C)OC2=O)c(C(C)(C)C)cc1OS(=O)(=O)Cn1ccnc1` (centres undefined), the IC50 was 3.6 nM. `Cc1cc(SC2C(=O)CC(CCc3ccccc3)(C(C)C)OC2=O)c(C(C)(C)C)cc1NS(=O)(=O)Cn1ccnc1` (centres undefined): the IC50 is 1.9 nM. Same read-out and setting: next, `Cc1cc(SC2C(=O)CC(C)(CCc3ccc(O)cc3)OC2=O)c(C(C)(C)C)cc1NS(=O)(=O)c1ccc(-c2cccs2)cc1` (centres undefined): 6.3 nM. `Cc1cc(SC2C(=O)CC(CCc3ccc(N)cc3)(C(C)C)OC2=O)c(C(C)(C)C)cc1OS(=O)(=O)Cn1ccnc1` (centres undefined) registered an IC50 of 2.2 nM. Compound `Cc1cc(SC2C(=O)CC(CCc3ccc(N)cc3)(C(C)C)OC2=O)c(C(C)(C)C)cc1OS(=O)(=O)c1cccnc1` (centres undefined) displayed a half-maximal inhibitory concentration (IC50) of 4.1 nM. Consider `Cc1cc(SC2C(=O)CC(CCc3ccc(N)cc3)(C(C)C)OC2=O)c(C(C)(C)C)cc1OS(=O)(=O)N(C)C` (centres undefined) [4-({6-[2-(4-aminophenyl)ethyl]-4-hydroxy-2-oxo-6-(propan-2-yl)-5,6-dihydro-2H-pyran-3-yl}sulfanyl)-5-tert-butyl-2-methylphenyl N,N-dimethylsulfamate], for which half-maximal inhibition (IC50) was put at 3.9 nM.

For `CCNS(=O)(=O)Oc1cc(C(C)(C)C)c(SC2C(=O)CC(CCc3ccc(N)cc3)(C(C)C)OC2=O)cc1C` (centres undefined) [4-({6-[2-(4-aminophenyl)ethyl]-4-hydroxy-2-oxo-6-(propan-2-yl)-5,6-dihydro-2H-pyran-3-yl}sulfanyl)-5-tert-butyl-2-methylphenyl N-ethylsulfamate], the 50% inhibitory concentration (IC50) turned out to be 4.3 nM. Turning to `CCNS(=O)(=O)Oc1cc(C(C)(C)C)c(SC2C(=O)CC(CCc3ccc(O)cc3)(C(C)C)OC2=O)cc1C` (centres undefined) [6-Alkyl-5,6-Dihydropyran-2-one 20], the IC50 is 4.9 nM.

Another experiment concerns the target T2, Dimer of Gag-Pol polyprotein [489-587] (Human immunodeficiency virus 1, UniProt P12497).
T2 construct: 489-587
Briefly: Protease Inhibition Assay.
Conditions: not given
The method, then:
as §1
With `Cc1cc(SC2C(=O)CC(CCc3ccc(N)cc3)(C(C)C)OC2=O)c(C(C)(C)C)cc1OS(=O)(=O)c1nccn1C` (centres undefined) [4-({6-[2-(4-aminophenyl)ethyl]-4-hydroxy-2-oxo-6-(propan-2-yl)-5,6-dihydro-2H-pyran-3-yl}sulfanyl)-5-tert-butyl-2-methylphenyl 1-methyl-1H-imidazole-2-sulfonate], the IC50 was found to be 2.2 nM. As to `Cc1cc(SC2C(=O)CC(CCc3ccc(N)cc3)(C(C)C)OC2=O)c(C(C)(C)C)cc1OS(=O)(=O)c1ccccc1-c1cccs1` (centres undefined) [4-({6-[2-(4-aminophenyl)ethyl]-4-hydroxy-2-oxo-6-(propan-2-yl)-5,6-dihydro-2H-pyran-3-yl}sulfanyl)-5-tert-butyl-2-methylphenyl 2-(thiophen-2-yl)benzene-1-sulfonate], the IC50 was 18.5 nM. In turn, `Cc1cc(SC2C(=O)CC(CCc3ccc(N)cc3)(C(C)C)OC2=O)c(C(C)(C)C)cc1OS(=O)(=O)c1cccc(-c2cccnc2)c1` (centres undefined) [4-({6-[2-(4-aminophenyl)ethyl]-4-hydroxy-2-oxo-6-(propan-2-yl)-5,6-dihydro-2H-pyran-3-yl}sulfanyl)-5-tert-butyl-2-methylphenyl 3-(pyridin-3-yl)benzene-1-sulfonate] yielded an IC50 of 4.1 nM. `Cc1cc(SC2C(=O)CC(CCc3ccc(O)cc3)(C(C)C)OC2=O)c(C(C)(C)C)cc1OS(=O)(=O)c1nccn1C` (centres undefined) [5-tert-butyl-4-({4-hydroxy-6-[2-(4-hydroxyphenyl)ethyl]-2-oxo-6-(propan-2-yl)-5,6-dihydro-2H-pyran-3-yl}sulfanyl)-2-methylphenyl 1-methyl-1H-imidazole-2-sulfonate] yielded an IC50 of 2.4 nM. `Cc1cc(SC2C(=O)CC(CCc3ccc(O)cc3)(C(C)C)OC2=O)c(C(C)(C)C)cc1OS(C)(=O)=O` (centres undefined) [5-tert-butyl-4-({4-hydroxy-6-[2-(4-hydroxyphenyl)ethyl]-2-oxo-6-(propan-2-yl)-5,6-dihydro-2H-pyran-3-yl}sulfanyl)-2-methylphenyl methanesulfonate] displayed an IC50 of 2.2 nM. On to `CCCC1(CCc2ccc(O)cc2)CC(=O)C(Sc2cc(C)c(OS(=O)(=O)c3nccn3C)cc2C(C)(C)C)C(=O)O1` (centres undefined) [5-tert-butyl-4-({4-hydroxy-6-[2-(4-hydroxyphenyl)ethyl]-2-oxo-6-propyl-5,6-dihydro-2H-pyran-3-yl}sulfanyl)-2-methylphenyl 1-methyl-1H-imidazole-2-sulfonate], for which half-maximal inhibition (IC50) was put at 2.2 nM. On the same count and under the same terms, next, `Cc1cc(SC2C(=O)CC(CCc3ccc(O)cc3)(CC(C)C)OC2=O)c(C(C)(C)C)cc1OS(=O)(=O)c1nccn1C` (centres undefined) [5-tert-butyl-4-({4-hydroxy-6-[2-(4-hydroxyphenyl)ethyl]-6-(2-methylpropyl)-2-oxo-5,6-dihydro-2H-pyran-3-yl}sulfanyl)-2-methylphenyl 1-methyl-1H-imidazole-2-sulfonate]: 3.6 nM. On the same count and under the same terms, next, `Cc1cc(SC2C(=O)CC(C)(CCc3ccc(O)cc3)OC2=O)c(C(C)(C)C)cc1OS(=O)(=O)c1nccn1C` (centres undefined) [5-tert-butyl-4-({4-hydroxy-6-[2-(4-hydroxyphenyl)ethyl]-6-methyl-2-oxo-5,6-dihydro-2H-pyran-3-yl}sulfanyl)-2-methylphenyl 1-methyl-1H-imidazole-2-sulfonate]: 2 nM; `Cc1cc(SC2C(=O)CC(CCc3ccc(O)cc3)(C3CCCCC3)OC2=O)c(C(C)(C)C)cc1OS(=O)(=O)c1nccn1C` (centres undefined) [5-tert-butyl-4-({6-cyclohexyl-4-hydroxy-6-[2-(4-hydroxyphenyl)ethyl]-2-oxo-5,6-dihydro-2H-pyran-3-yl}sulfanyl)-2-methylphenyl 1-methyl-1H-imidazole-2-sulfonate]: 8 nM.

The compound `Cc1cc(SC2C(=O)CC(CCc3ccccc3)(C(C)C)OC2=O)c(C(C)(C)C)cc1OS(=O)(=O)c1nccn1C` (centres undefined) [5-tert-butyl-4-{[4-hydroxy-2-oxo-6-(2-phenylethyl)-6-(propan-2-yl)-5,6-dihydro-2H-pyran-3-yl]sulfanyl}-2-methylphenyl 1-methyl-1H-imidazole-2-sulfonate] displayed an IC50 of 3 nM. The Ki is a measure of affinity in units of concentration, obtained from inhibition or displacement. High values mean lower affinity, low ones higher affinity. `Cc1cc(SC2C(=O)C[C@](CCc3ccc(O)cc3)(C(C)C)OC2=O)c(C(C)(C)C)cc1N` (stereo partly drawn) [(6R)-3-[(4-amino-2-tert-butyl-5-methylphenyl)sulfanyl]-4-hydroxy-6-[2-(4-hydroxyphenyl)ethyl]-6-(propan-2-yl)-5,6-dihydro-2H-pyran-2-one] had a Ki of 13 nM.

Compound `Cc1cc(SC2C(=O)CC(CCc3ccccc3)(C(C)C)OC2=O)c(C(C)(C)C)cc1NS(=O)(=O)c1nccn1C` (centres undefined) [N-(5-tert-butyl-4-{[4-hydroxy-2-oxo-6-(2-phenylethyl)-6-(propan-2-yl)-5,6-dihydro-2H-pyran-3-yl]sulfanyl}-2-methylphenyl)-1-methyl-1H-imidazole-2-sulfonamide] gave an IC50 of 1.9 nM. Regarding `Cc1cc(SC2C(=O)CC(CCc3ccccc3)(C(C)C)OC2=O)c(C(C)(C)C)cc1NS(=O)(=O)c1ccc(C(F)(F)F)cn1` (centres undefined) [N-(5-tert-butyl-4-{[4-hydroxy-2-oxo-6-(2-phenylethyl)-6-(propan-2-yl)-5,6-dihydro-2H-pyran-3-yl]sulfanyl}-2-methylphenyl)-5-(trifluoromethyl)pyridine-2-sulfonamide], the Ki was 1.04 nM. The compound `Cc1cc(SC2C(=O)C[C@](CCc3ccccc3)(C(C)C)OC2=O)c(C(C)(C)C)cc1NS(=O)(=O)c1ccc(C(F)(F)F)cn1` (stereo partly drawn) [N-(5-tert-butyl-4-{[(6R)-4-hydroxy-2-oxo-6-(2-phenylethyl)-6-(propan-2-yl)-5,6-dihydro-2H-pyran-3-yl]sulfanyl}-2-methylphenyl)-5-(trifluoromethyl)pyridine-2-sulfonamide] came in with a Ki of 6.4 nM. As for `Cc1cc(SC2C(=O)C[C@](CCc3ccc(O)cc3)(C(C)C)OC2=O)c(C(C)(C)C)cc1NS(=O)(=O)c1ccc(C(F)(F)F)cn1` (stereo partly drawn) [N-(5-tert-butyl-4-{[(6R)-4-hydroxy-6-[2-(4-hydroxyphenyl)ethyl]-2-oxo-6-(propan-2-yl)-5,6-dihydro-2H-pyran-3-yl]sulfanyl}-2-methylphenyl)-5-(trifluoromethyl)pyridine-2-sulfonamide], the Ki worked out at 9.54 nM.

The same experiment, now with this note: pH 6.2; 37 °C.
With `Cc1cc(SC2C(=O)CC(CCc3ccccc3)(C(C)C)OC2=O)c(C(C)(C)C)cc1NS(=O)(=O)c1ccc(C#N)cc1` (centres undefined) [N-(5-tert-butyl-4-{[4-hydroxy-2-oxo-6-(2-phenylethyl)-6-(propan-2-yl)-5,6-dihydro-2H-pyran-3-yl]sulfanyl}-2-methylphenyl)-4-cyanobenzene-1-sulfonamide], the IC50 was 9.1 nM. Same read-out and setting: the same measure for `Cc1cc(SC2C(=O)CC(C)(CCc3ccc(O)cc3)OC2=O)c(C(C)(C)C)cc1NS(=O)(=O)c1nccn1C` (centres undefined) [N-[5-tert-butyl-4-({4-hydroxy-6-[2-(4-hydroxyphenyl)ethyl]-6-methyl-2-oxo-5,6-dihydro-2H-pyran-3-yl}sulfanyl)-2-methylphenyl]-1-methyl-1H-imidazole-2-sulfonamide]: 1.9 nM; for `Cc1cc(SC2C(=O)CC(C)(CCc3ccc(O)cc3)OC2=O)c(C(C)(C)C)cc1NS(=O)(=O)c1cccc(-c2cccs2)c1` (centres undefined) [N-[5-tert-butyl-4-({4-hydroxy-6-[2-(4-hydroxyphenyl)ethyl]-6-methyl-2-oxo-5,6-dihydro-2H-pyran-3-yl}sulfanyl)-2-methylphenyl]-3-(thiophen-2-yl)benzene-1-sulfonamide]: 6.3 nM.
